One test concerns the target T1, CrHYC3R (THAS3) (Catharanthus roseus, UniProt A0A1B1FHP1).
T1 sequence (A0A1B1FHP1 1-377): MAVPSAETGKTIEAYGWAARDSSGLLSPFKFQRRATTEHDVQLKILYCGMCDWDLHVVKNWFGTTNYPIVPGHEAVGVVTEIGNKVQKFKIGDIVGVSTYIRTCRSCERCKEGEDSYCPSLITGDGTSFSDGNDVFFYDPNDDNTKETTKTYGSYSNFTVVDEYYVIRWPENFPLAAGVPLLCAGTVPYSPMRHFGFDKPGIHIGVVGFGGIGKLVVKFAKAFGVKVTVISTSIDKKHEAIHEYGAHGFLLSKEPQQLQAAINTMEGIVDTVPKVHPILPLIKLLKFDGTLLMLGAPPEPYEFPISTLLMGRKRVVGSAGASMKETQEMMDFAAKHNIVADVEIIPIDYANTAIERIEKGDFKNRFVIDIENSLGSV
Briefly: LC-MS/MS relative activity, yeast lysate. Format: biochemical. To be noted: 1 mM NADPH, 20 mM Tris-HCl pH 7.5, 30 °C, 4 h.

A further test concerns RtHYC3O. Briefly: LC-MS/MS product assay, non-linear regression. Format: biochemical, Rauvolfia tetraphylla. Particulars: 20 mM Tris-HCl pH 7.5, 30 °C, 10 min; air O2; FAD enzyme.

2 compounds from publication PMC12647599 (Nature Communications, 2025) can be followed below.

On to `COC(=O)[C@@H]1[C@H]2CC3=[N+](CCc4c3[nH]c3ccccc43)C[C@@H]2CC[C@@H]1O` [3-dehydro-yohimbine], for which the “LC-MS/MS relative activity, yeast lysate” value at CrHYC3R (THAS3) is “efficiently reduced 3-dehydro intermediates of yohimbine and heteroyohimbine types”.

As for `COC(=O)[C@H]1[C@H]2C[C@H]3c4[nH]c5ccccc5c4CCN3C[C@H]2CC[C@@H]1O` [rauwolscine], the Km (in general, the concentration of substrate that gives half-maximal velocity) in the test with RtHYC3O stood at 1.15 µM.
